Each block holds one compound with its values, some of them ahead of it.
Experiments:
[1] = Elution of latanoprost from silicone drug cores with excipients in PBS (FIGS. 9-12); format: physicochemical; settings: 37° C., 100 cpm, 10% glycerol, 5% PEG400, 7.3 wt % DMPC or EPG in Formulations 1 and 2
Method: The silicone formulation (MED6385) is a two part system. Part A contains the silicone and crosslinker while Part B contains the tin catalyst to promote crosslinking. The two parts are combined in a final ratio of 200:1 (Part A: Part B). The required amounts of Latanoprost, the selected excipient (DMPC or EPG), the crosslinker, MED6385 Part A and B are weighed onto a glass slide and mixed for approximately 2 minutes using a plastic mini spatula. Quantities used in the preparation of specific examples are shown below.
After the silicone/latanoprost mixing is complete, the mixture is loaded in the barrel of the syringe extrusion system. The plunger is inserted and excess air is removed. The syringe is then loaded into the extrusion apparatus.
After setup, the extrusion system activated and a silicone latanoprost mixture is extruded down the length of the polyimide tubing. Once the mixture reaches the bottom of the tubing, the tubing is cut using a razor blade and clamped on both ends.
The clamped section of tubing is placed in a humidity chamber to be cured.
Samples, including those shown in FIGS. 9-12, were analyzed for elution by immersion in a PBS (phosphate buffered saline) elution medium. Temperature was maintained at 37° C. with 100 cpm shaking. The elution medium was changed daily (except weekends) for the first two weeks and weekly thereafter. Elution media samples were analyzed by reversed-phase chromatography. Samples were prepared for HPLC analysis by adding 200 μL of internal standard solution (2.4 μg/mL of butylated hydroxyanisole in isopropanol) and vortexing to mix. The amount of latanoprost eluted was determined using a reversed phase HPLC UV detection using a Waters SunFire C18, 3.5 μm, 3.0×100 mm column and detection conditions of the following: 1.0 mL/min flow rate, 200 μL injection volume, 210 nm detection wavelength, using gradient of solvents over a run time of 6 minutes (time zero=63% mobile phase A, 37% mobile phase B, time 4.9 minutes=35% A, 65% B, time 5 minutes=63% A, 37% B) comprising 0.1% Phosphoric Acid in Water (mobile Phase A) and ACN (mobile phase B), 50° C. column temperature set point.

[2] = after topical administration; studies in man; cited from earlier work
[3] = cited from earlier work
subjects = settings: clinical trials, cited from earlier work

SMILES: OCC(O)CO [glycerol]
release (elution) rate of latanoprost from silicone matrix with excipient relative to no excipient [1]: rate is increased relative to control

SMILES: CCCCCCCCCCCCCC(=O)OC[C@H](COP(=O)([O-])OCC[N+](C)(C)C)OC(=O)CCCCCCCCCCCCC [DMPC, dimyristoyl phosphatidylcholine]
release (elution) rate of latanoprost from silicone matrix with excipient relative to no excipient [1]: increased elution rate

SMILES: CCCCCCCCCCCCCCCCCC(=O)O[C@H](COC(=O)CCCCCCCCCCCCCCC)COP(=O)([O-])OCC[N+](C)(C)C [PSPC, palmitoyl stearoyl phosphatidylcholine]
release (elution) rate of latanoprost from silicone matrix with excipient relative to no excipient [1]: decreased elution rate

SMILES: CCCCCCCCCCCCCCCC(=O)OCC(COP(=O)(O)OCCN)OC(=O)CCCCCCCCCCCCCCC (stereo not drawn) [DPPE, dipalmitoyl phosphatidylethanolamine]
release (elution) rate of latanoprost from silicone matrix with excipient relative to no excipient [1]: decreased elution rate

SMILES: CC(C)OC(=O)CCC/C=C\C[C@@H]1[C@@H](CC[C@@H](O)CCc2ccccc2)[C@H](O)C[C@@H]1O [latanoprost, isopropyl-(Z)-7[(1R,2R,3R,5S)3,5-dihydroxy-2-[(3R)-3-hydroxy-5-phenylpentyl]cyclopentyl]-5-heptenoate]
time to peak concentration in the aqueous humor [2]: about two
solubility in acetone, ethanol, ethyl acetate, isopropanol, methanol and octanol [3]: freely soluble
solubility in acetonitrile [3]: very soluble
solubility in water [3]: practically insoluble in water
aqueous solubility ([3]; in water at 25 degrees C.): 50 micrograms/mL
aqueous solubility, by weight ([3]; in water at 25 degrees C.): about 0.005 % by weight
conjunctivitis, diplopia, discharge from the eye, subjects (subjects; Xalatan product information): Less than 1%
retinal artery embolus, retinal detachment, vitreous hemorrhage from diabetic retinopathy (subjects; Xalatan product information): rarely reported
subjects requiring discontinuation of therapy because of intolerance to conjunctival hyperemia (subjects; Xalatan product information): Less than 1%
systemic adverse events: upper respiratory tract infection/cold/flu, rate (subjects): approximately 4%

Continued, values first:

release (elution) rate of latanoprost from silicone matrix with excipient relative to no excipient [1]: increased elution rate
SMILES: CCCCCCCCCCCCCC(=O)OCC(COP(=O)(O)OCC(O)CO)OC(=O)CCCCCCCCCCCCC (stereo not drawn) [DMPG, dimyristoyl phosphatidylglycerol]

release (elution) rate of latanoprost from silicone matrix with excipient relative to no excipient [1]: decreased elution rate
SMILES: CCCCCCCCCCCCCCCC(=O)OC[C@H](COP(=O)([O-])OCC[N+](C)(C)C)OC(=O)CCCCCCCCCCCCCCC [DPPC, dipalmitoyl phosphatidylcholine]

release (elution) rate of latanoprost from silicone matrix with excipient relative to no excipient [1]: decreased elution rate
SMILES: CCCCCCCCCCCCCCCCCC(=O)OC[C@H](COP(=O)([O-])OCC[N+](C)(C)C)OC(=O)CCCCCCCCCCCCCCCCC [DSPC, distearoyl phosphatidylcholine]

release (elution) rate of latanoprost from silicone matrix with excipient relative to no excipient [1]: increased elution rate
SMILES: CCCCCCCC/C=C\CCCCCCCC(=O)O[C@H](COC(=O)CCCCCCCCCCCCCCC)COP(=O)(O)OCC(O)CO (stereo partly drawn) [POPG, palmitoyl oleoyl phosphatidylglycerol]

— US20150064230A1, “SUSTAINED RELEASE DELIVERY OF ONE OR MORE AGENTS” (Mati Therapeutics Inc., priority 2009, published 2015)
